What was measured:
cytochrome c [1] = biological target: T1, cytochrome c (Equus caballus, UniProt P00004); assay: Fluorescence quenching of labelled peptides by cytochrome c; format: binding, horse; design: from tissue; host or cells: horse heart; conditions: additions of 75 μg/ml BSA
cytochrome c [2] = biological target: T1, cytochrome c; assay: Photoluminescence of cytochrome c; format: biochemical; conditions: excitation 532.8 nm
Experimental: Photoluminescence (PL) was carried out to examine the effects of SS-31 on the electronic structure of conduction band of the heme of cytochrome c, an energy state responsible for electronic transport (FIG. 3). A […] laser (532.8 nm) was used to excite electrons in cytochrome c (FIG. 3A). Strong PL emission in cytochrome c state can be clearly identified at 650 nm (FIG. 3B). […] Accordingly, aromatic-cationic peptides of the present disclosure are useful for the prevention or treatment of diseases or disorders characterized by dysregulation of cytochrome c, for enhancing electron capacity in cytochrome c, and for treatment of diseases or disorders characterized by dysregulation of electron capacity in cytochrome c.

isolated mitochondria = assay: ATP synthesis in isolated mitochondria; format: biochemical, rat
Experimental: (§1) Fresh mitochondria were isolated from rat kidney as described previously. Electron flux was measured by O2 consumption (Oxygraph Clark electrode) as previously described using different substrates for C1 (glutamate/malate), C2 (succinate), and C3 (TMPD/ascorbate). Assays were carried out under low substrate conditions in order to avoid saturating the enzyme reactions. ATP production in isolated mitochondria was determined kinetically using the luciferase method (Biotherma) in a 96-well luminescence plate reader (Molecular Devices). The initial maximal rate for ATP synthesis was determined over the first minute.
The rate of mitochondrial ATP synthesis was determined by measuring ATP in respiration buffer collected from isolated mitochondria 1 min after addition of […] (FIG. 6). ATP was assayed by HPLC. All experiments were carried out in triplicate, with n=3. […] Accordingly, aromatic-cationic peptides of the present disclosure are useful for increasing ATP synthesis in mitochondria and for treating diseases or disorder characterized by dysregulation of ATP synthesis.
(§2) SS-20 or SS-31 was added at 100 μM concentrations to isolated mitochondria in respiration buffer containing 0.5 mM succinate (complex II substrate) and 400 μM ADP. Similar increases in O2 consumption were observed when low concentrations of complex I substrates (glutamate/malate) were used (data not shown). […] Accordingly, targeting SS-20 and SS-31 to the IMM can facilitate electron flux in the electron transport chain and improve ATP synthesis, especially under conditions of reduced substrate supply.
Increase in electron flux in the electron transport chain can either result in increase in ATP synthesis or increase in electron leak and generation of free radicals. ATP synthesis in isolated mitochondria was assayed by HPLC. […] Accordingly, aromatic-cationic peptides of the present disclosure are useful for increasing ATP synthesis in mitochondria and for treating diseases or disorder characterized by dysregulation of ATP synthesis.

[3] = biological target: T2, horse radish peroxidase (HRP) (Armoracia rusticana, UniProt P00433); assay: Horseradish peroxidase activity (Amplex Red); format: biochemical; conditions: data not shown
T2 sequence (P00433 31-338 limits assumed): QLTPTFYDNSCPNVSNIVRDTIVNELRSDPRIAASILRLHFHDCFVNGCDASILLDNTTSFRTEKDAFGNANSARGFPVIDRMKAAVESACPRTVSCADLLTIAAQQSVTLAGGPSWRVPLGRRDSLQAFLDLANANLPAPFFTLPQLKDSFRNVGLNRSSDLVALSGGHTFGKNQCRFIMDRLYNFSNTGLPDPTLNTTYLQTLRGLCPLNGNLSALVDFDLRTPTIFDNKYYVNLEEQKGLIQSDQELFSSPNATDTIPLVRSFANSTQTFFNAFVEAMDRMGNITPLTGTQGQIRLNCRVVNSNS

[4] = test system: isolated rat kidney mitochondria; assay: O2 consumption in isolated mitochondria; format: biochemical
Experimental: as §1
Oxygen consumption of isolated rat kidney mitochondria was determined using the Oxygraph (FIG. 5). Rates of respiration were measured in the presence of different concentrations of SS-31 in state 2 (400 μM ADP only), state 3 (400 μM ADP and 500 μM substrates) and state 4 (substrates only). All experiments were done in triplicate with n=4−7. […] Accordingly, aromatic-cationic peptides of the present disclosure are useful for promoting electron transfer to oxygen without uncoupling mitochondria, increasing O2 consumption, and treating diseases or conditions related to dysregulation of O2 consumption in mitochondria.
as §2
SS-20 or SS-31 was added at 10 μM or 100 μM concentrations to isolated mitochondria in respiration buffer containing glutamate/malate (complex I substrate), 0.5 mM succinate (complex II substrate) or 3 μM TMPD/1 mM ascorbate (direct reductant of cytochrome c). 400 μM ADP was added to initiate State 3 respiration.

T1 sequence (P00004 2-105 limits assumed): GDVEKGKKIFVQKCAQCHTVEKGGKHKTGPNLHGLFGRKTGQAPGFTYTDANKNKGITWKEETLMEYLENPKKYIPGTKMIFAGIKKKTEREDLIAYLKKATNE

Row | Substance | reversal of cytochrome c quenching by BSA (cytochrome c [1]) | photoluminescence (PL) intensity of cytochrome c at 650 nm (cytochrome c [2]) | rate of ATP synthesis (isolated mitochondria; 1 min after addition of 400 mM ADP, HPLC) | ATP synthesis (isolated mitochondria; assayed by HPLC (Example 18)) | rate of ATP production (isolated mitochondria; mitochondria energized with low concentrations of succinate) | HRP activity [3] | O2 consumption in state 3 respiration ([4]; 10 μM or 100 μM peptide, complex I or complex II substrates or TMPD/ascorbate, 400 μM ADP) | electron flux measured by O2 consumption ([4]; 100 μM peptide, 0.5 mM succinate, 400 μM ADP) | electron transfer to oxygen (rates of respiration) ([4]; state 2, state 3 and state 4, different concentrations of SS-31)
1 | 2′,6′-Dmt-D-Arg-Phe-(atn)Dap-NH2 [SS-19] | did not reverse quenching | – | – | – | – | – | – | – | –
2 | D-Arg-2′,6′-Dmt-Lys-Phe-NH2 [SS-31] | – | increased dose-dependently | dose-dependently increased the rate of ATP synthesis | dose-dependently increased ATP synthesis | significant increase in the rate of ATP production | no effect | increased O2 consumption in state 3 respiration | promote electron flux | promoted electron transfer to oxygen without uncoupling mitochondria

Source: patent US10808008B2, “Aromatic-cationic peptides and uses of same” (Cornell University, priority 2012, dated 2020)
